Some test systems named below: HCC-2998 colon; HCT-15 colon; HOP-62 NSCLC; K-562 leukemia; MALME-3M melanoma; OVCAR-3 ovarian; RXF 393 renal; SR leukemia.
Test in all cases: NCI tumour cell line growth inhibition, 48 h

Several values for one entry are separate records, joined by “and”; a condition that tells them apart may be missing. Equal entries are not always repeated.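 Five compound concentrations were applied to cells in 96-well plates for 48 hours; endpoints were derived by simple linear interpolation of the resulting dose-response curve. GI50 marks 50% less growth. The concentration for full growth arrest is given as TGI.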

Take `COc1ccc(CCN(CC(=O)N(CC(N)=O)C2CCC[C@@H]2OCc2ccccc2)C(=O)CN(C(=O)CN(CCc2ccc(Cl)cc2)C(=O)CN(C(=O)CN(C)Cc2ccccc2F)[C@H](C)C2CCCCC2)[C@H](C)C2CCCCC2)cc1OC` (some centres not stated): the GI50 was 1.61 µM with HCC-2998 colon; 2.77 µM with HCT-15 colon; 3.02 µM with HOP-62 NSCLC; 1.61 µM in the assay on K-562 leukemia; 1.66 µM with MALME-3M melanoma; 1.82 µM in the assay on OVCAR-3 ovarian. The values for the GI50 in the assay on RXF 393 renal and in the assay with SR leukemia were 1.49 µM and 0.69 µM, respectively. Also, the TGI is > 50 µM in the assay with HCC-2998 colon; > 50 µM in the assay on HCT-15 colon; > 50 µM with HOP-62 NSCLC; > 50 µM with K-562 leukemia; 46.2 µM in the assay with MALME-3M melanoma; > 50 µM in the assay with OVCAR-3 ovarian. Besides, the TGI with RXF 393 renal was determined as 3.84 µM; in the assay with SR leukemia, 2.23 µM.

On to `CC(C)(C)c1cc(NC(=O)Nc2ccc(-c3cn4c(n3)sc3cc(OCCN5CCOCC5)ccc34)cc2)no1`, for which the GI50 was 14.1 µM and 11.7 µM and 7.03 µM in the assay with HCC-2998 colon; 1.88 µM and 1.19 µM and 2.29 µM with HOP-62 NSCLC; 2.62 µM and 1.59 µM and 6.17 µM with MALME-3M melanoma; 6.61 µM and 1.54 µM and 6.76 µM with OVCAR-3 ovarian; 0.8 µM and 0.489 µM and 0.881 µM with RXF 393 renal. Besides, the TGI in the assay on HCC-2998 colon was 61.5 µM and 52.3 µM and > 10 µM; in the assay with HCT-15 colon, > 91.9 µM and 14.8 µM and > 10 µM; in the assay with HOP-62 NSCLC, 6.57 µM and 10 µM and > 10 µM; in the assay with K-562 leukemia, 11.9 µM and > 10 µM; in the assay with MALME-3M melanoma, 14.7 µM and 13.3 µM and > 10 µM; in the assay on OVCAR-3 ovarian it was 19.4 µM and 8.38 µM and > 10 µM. Also, the TGI in the assay with RXF 393 renal was 6.26 µM and 3.49 µM and > 10 µM; in the assay with SR leukemia, > 47.9 µM and 11.2 µM and > 10 µM.

In the case of `Cc1ccc2cccc(OC(=O)Nc3cccc(C(F)(F)F)c3)c2n1`, the GI50 is 5.29 µM in the assay on HCC-2998 colon; 3.14 µM in the assay with HCT-15 colon; 5.83 µM in the assay on HOP-62 NSCLC; 3.63 µM in the assay with K-562 leukemia; 3.03 µM with MALME-3M melanoma; 3.35 µM in the assay on OVCAR-3 ovarian. Also, the GI50 with RXF 393 renal was 5.3 µM; in the assay with SR leukemia, 5.6 µM. The TGI in the assay with HCC-2998 colon came out at 18.5 µM; with HCT-15 colon it was 11.3 µM; in the assay with HOP-62 NSCLC, 18.6 µM; in the assay with K-562 leukemia, 17.8 µM; in the assay on MALME-3M melanoma it was 10 µM; with OVCAR-3 ovarian, 9.61 µM. Moreover, the TGI in the assay with RXF 393 renal was 21.9 µM; in the assay with SR leukemia it was > 100 µM.

On to `COc1ccc(C2CC(c3ccc(Nc4ccnc5cc(Cl)ccc45)cc3)=NN2C=O)cc1` (configuration not stated), for which the GI50 with HCC-2998 colon is 18.1 µM; in the assay on HCT-15 colon, 2.97 µM; with HOP-62 NSCLC, 43.7 µM; with MALME-3M melanoma, > 100 µM; in the assay on OVCAR-3 ovarian, 14.5 µM; in the assay on RXF 393 renal it was 11.6 µM. In the assay on SR leukemia, the GI50 is 2.83 µM. In addition, the TGI was > 100 µM with HCC-2998 colon; > 100 µM in the assay on HCT-15 colon; > 100 µM in the assay on HOP-62 NSCLC; > 100 µM in the assay with MALME-3M melanoma; 55.4 µM in the assay on OVCAR-3 ovarian; > 100 µM in the assay with RXF 393 renal. The TGI with SR leukemia amounted to 6.64 µM.

Take `O=C(O)c1cc(=O)cc(C(=O)O)o1`: the GI50 with HCC-2998 colon, with HCT-15 colon, in the assay on HOP-62 NSCLC, in the assay on K-562 leukemia, with MALME-3M melanoma and in the assay on OVCAR-3 ovarian was > 100 µM in each case. Moreover, the GI50 in the assay on RXF 393 renal and with SR leukemia was > 100 µM in each case. For the same molecule, the TGI in the assay on HCC-2998 colon, with HCT-15 colon, in the assay on HOP-62 NSCLC, in the assay with K-562 leukemia, in the assay with MALME-3M melanoma and in the assay on OVCAR-3 ovarian was > 100 µM in each case. The TGI in the assay with RXF 393 renal and in the assay on SR leukemia was > 100 µM each time.

Consider `CC1(C)N=C(N)N=C(N)N1c1ccc(Cl)cc1`, for which the GI50 in the assay with HCC-2998 colon is 2.01 µM; with HCT-15 colon it was 18.7 µM; in the assay on HOP-62 NSCLC it was 3.54 µM; in the assay on K-562 leukemia, 1.3 µM; with MALME-3M melanoma, 16.1 µM; in the assay with OVCAR-3 ovarian it was 11.3 µM. For the same molecule, the GI50 in the assay with RXF 393 renal was 8.09 µM; with SR leukemia, 20.5 µM. Besides, the TGI in the assay on HCC-2998 colon is 11.1 µM; with HCT-15 colon, > 100 µM; in the assay on HOP-62 NSCLC it was > 100 µM; in the assay on K-562 leukemia, > 100 µM; with MALME-3M melanoma, > 100 µM; in the assay on OVCAR-3 ovarian, > 100 µM. The TGI in the assay with RXF 393 renal and with SR leukemia was > 100 µM each time.

On to `NC(=S)N/N=C1\c2ccccc2-c2c(F)c(F)c(F)c(F)c21`, for which the GI50 is 3.11 µM in the assay on HCC-2998 colon; 2.05 µM in the assay with HCT-15 colon; 2.71 µM in the assay on HOP-62 NSCLC; 2.09 µM in the assay on K-562 leukemia; 7.54 µM in the assay with MALME-3M melanoma; 2.06 µM with OVCAR-3 ovarian. The GI50 in the assay on RXF 393 renal was 2.07 µM; in the assay on SR leukemia, 0.298 µM. The TGI came out at 9.37 µM in the assay with HCC-2998 colon; 4.61 µM in the assay on HCT-15 colon; 6.72 µM with HOP-62 NSCLC; 6.61 µM with K-562 leukemia; 21.1 µM in the assay on MALME-3M melanoma; 3.88 µM in the assay on OVCAR-3 ovarian. In addition, the TGI turned out to be 3.85 µM in the assay on RXF 393 renal and 1.86 µM with SR leukemia.

For `Oc1c(Cl)cc(Cl)cc1/C=N/Nc1nnc(N/N=C/c2cc(Cl)cc(Cl)c2O)c2ccccc12`, the GI50 is 0.469 µM in the assay on HCC-2998 colon; 0.334 µM in the assay on HCT-15 colon; 0.388 µM in the assay with HOP-62 NSCLC; 0.372 µM in the assay on K-562 leukemia; 0.68 µM in the assay with MALME-3M melanoma; 0.334 µM in the assay on OVCAR-3 ovarian. Also, the results for the GI50 in the assay on RXF 393 renal and with SR leukemia were 0.278 µM and 0.434 µM, respectively. Moreover, the TGI is > 100 µM in the assay with HCC-2998 colon; > 100 µM in the assay with HCT-15 colon; > 28.8 µM in the assay on HOP-62 NSCLC; > 100 µM in the assay with K-562 leukemia; > 100 µM with MALME-3M melanoma; 18.2 µM in the assay on OVCAR-3 ovarian. The TGI in the assay on RXF 393 renal was 0.798 µM; in the assay with SR leukemia, > 100 µM.

Consider `C=C1C(=O)O[C@H]2[C@H](OC(C)=O)[C@@H](C)CCCC3(C)OC3CCC3(CO3)[C@H](O)C[C@@H]12` (some centres not stated), for which the GI50 was 1.99 µM in the assay with HCC-2998 colon; 10.2 µM with HCT-15 colon; 21.4 µM in the assay with HOP-62 NSCLC; 6.01 µM in the assay with MALME-3M melanoma; 3.62 µM with OVCAR-3 ovarian; 12.4 µM in the assay with RXF 393 renal. In addition, the GI50 in the assay on SR leukemia was 0.568 µM. Further, the TGI with HCC-2998 colon was 7.21 µM; in the assay on HCT-15 colon, 21.8 µM; in the assay with HOP-62 NSCLC, 43 µM; in the assay on MALME-3M melanoma it was 21.6 µM; with OVCAR-3 ovarian, 18.1 µM; in the assay on RXF 393 renal it was > 100 µM. This molecule also returned a TGI in the assay with SR leukemia of 2.26 µM.

For the origin of these results see PubChem BioAssay (NCI).
